Broadly, the Kd is the equilibrium constant for the complex coming apart. A high value points to lower affinity. Broadly, the IC50 is the point on the concentration scale where inhibition reaches its midpoint.

From the kinase profiling compilation of Christmann-Franck et al. (2016) come the findings set out here.

Each structure is given as a SMILES string.

One experiment concerns the target MAPK7 (human) (UniProt Q13164). The experiment in a line: KINOMEscan competition binding. The conditions noted are these: compound 10.0 µM.
The target in another experiment is RPS6KA1 KD2 (human) (UniProt Q15418). Nature of the experiment: KINOMEscan competition binding. The conditions noted are these: compound 10.0 µM.
The target in a further experiment is GAK (human) (UniProt O14976). Nature of the experiment: KINOMEscan competition binding. The conditions noted are these: compound 10.0 µM.
Another experiment deals with TTK (human) (UniProt P33981). Nature of the experiment: KINOMEscan competition binding. The conditions noted are these: compound 10.0 µM.
Experiment [1] relates to ABL1 (human), P00519 [F317I]. The experiment in a line: KINOMEscan competition binding. The conditions noted are these: compound 10.0 µM.
The next experiment deals with TNK1 (human) (UniProt Q13470). Nature of the experiment: KINOMEscan competition binding. The conditions noted are these: compound 10.0 µM.
Sequence of TNK1 (human) (Q13470 whole entry, looked up): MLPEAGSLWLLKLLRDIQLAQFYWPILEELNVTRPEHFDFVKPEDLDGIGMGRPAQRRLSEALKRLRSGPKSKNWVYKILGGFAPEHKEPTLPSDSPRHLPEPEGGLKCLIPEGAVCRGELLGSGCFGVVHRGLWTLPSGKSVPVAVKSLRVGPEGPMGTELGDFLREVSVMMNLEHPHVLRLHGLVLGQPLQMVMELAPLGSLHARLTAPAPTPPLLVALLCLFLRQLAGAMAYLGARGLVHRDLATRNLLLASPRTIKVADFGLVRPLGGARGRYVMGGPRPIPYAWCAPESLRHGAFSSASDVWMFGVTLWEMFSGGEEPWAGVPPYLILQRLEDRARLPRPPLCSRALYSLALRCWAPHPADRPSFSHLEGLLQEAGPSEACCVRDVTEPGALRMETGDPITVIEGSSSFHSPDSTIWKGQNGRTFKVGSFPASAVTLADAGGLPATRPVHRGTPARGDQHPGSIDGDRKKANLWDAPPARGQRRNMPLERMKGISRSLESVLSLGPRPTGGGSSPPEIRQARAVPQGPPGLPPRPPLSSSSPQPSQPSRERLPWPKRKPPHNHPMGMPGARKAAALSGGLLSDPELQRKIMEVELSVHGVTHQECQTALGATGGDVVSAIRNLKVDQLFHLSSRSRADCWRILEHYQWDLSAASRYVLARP
Another experiment has as its target RPS6KA6 KD2 (human) (UniProt Q9UK32). The experiment in a line: KINOMEscan competition binding. The conditions noted are these: compound 10.0 µM.
The target in a further experiment is DCLK2 (human) (UniProt Q8N568). The experiment in a line: KINOMEscan competition binding. The conditions noted are these: compound 10.0 µM.
The next experiment deals with DCLK1 (human) (UniProt O15075). Nature of the experiment: KINOMEscan competition binding.
Sequence of DCLK1 (human) (O15075 whole entry, looked up): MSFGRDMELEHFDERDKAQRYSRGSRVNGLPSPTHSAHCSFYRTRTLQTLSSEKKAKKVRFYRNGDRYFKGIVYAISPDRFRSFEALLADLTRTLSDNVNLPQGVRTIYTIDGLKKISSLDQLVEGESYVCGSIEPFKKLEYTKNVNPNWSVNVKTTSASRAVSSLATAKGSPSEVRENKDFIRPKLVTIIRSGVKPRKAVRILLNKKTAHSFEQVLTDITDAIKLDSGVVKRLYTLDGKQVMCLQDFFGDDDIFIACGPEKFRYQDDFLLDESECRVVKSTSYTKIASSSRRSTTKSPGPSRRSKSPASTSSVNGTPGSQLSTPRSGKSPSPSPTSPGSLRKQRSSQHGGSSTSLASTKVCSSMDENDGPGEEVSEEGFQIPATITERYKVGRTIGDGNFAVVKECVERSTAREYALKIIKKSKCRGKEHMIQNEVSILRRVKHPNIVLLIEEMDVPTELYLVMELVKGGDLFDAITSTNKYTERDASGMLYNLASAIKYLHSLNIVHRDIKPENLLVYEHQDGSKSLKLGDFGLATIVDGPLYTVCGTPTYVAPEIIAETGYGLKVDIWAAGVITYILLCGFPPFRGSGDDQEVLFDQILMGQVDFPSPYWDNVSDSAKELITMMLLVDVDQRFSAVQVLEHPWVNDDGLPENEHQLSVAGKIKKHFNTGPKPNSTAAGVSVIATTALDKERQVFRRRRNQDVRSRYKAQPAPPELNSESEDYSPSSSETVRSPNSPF
A further experiment deals with ROS1 (human) (UniProt P08922). Nature of the experiment: KINOMEscan competition binding. The conditions noted are these: compound 10.0 µM.
The next experiment has as its target ALK (human) (UniProt Q9UM73). Nature of the experiment: KINOMEscan competition binding. The conditions noted are these: compound 10.0 µM.
In the next experiment the target is PLK4 (human) (UniProt O00444). The experiment in a line: KINOMEscan competition binding. The conditions noted are these: compound 10.0 µM.
The target of a further experiment is TNK2 (human) (UniProt Q07912). The experiment in a line: KINOMEscan competition binding. The conditions noted are these: compound 10.0 µM.
The next experiment addresses TAOK2 (human) (UniProt Q9UL54). Nature of the experiment: SelectScreen, TR FRET.
Experiment [2] addresses LRRK2 (human), Q5S007 [G2019S]. Nature of the experiment: SelectScreen, TR FRET. (TR-FRET usually uses a lanthanide donor and a delayed reading to cut background.)
For the next experiment, the target named is MAP3K3 (human) (UniProt Q99759). The experiment in a line: SelectScreen, TR FRET.
For another experiment, the target named is MAP3K2 (human) (UniProt Q9Y2U5). The experiment in a line: SelectScreen, TR FRET.

Sequence of MAPK7 (human) (Q13164 whole entry, looked up): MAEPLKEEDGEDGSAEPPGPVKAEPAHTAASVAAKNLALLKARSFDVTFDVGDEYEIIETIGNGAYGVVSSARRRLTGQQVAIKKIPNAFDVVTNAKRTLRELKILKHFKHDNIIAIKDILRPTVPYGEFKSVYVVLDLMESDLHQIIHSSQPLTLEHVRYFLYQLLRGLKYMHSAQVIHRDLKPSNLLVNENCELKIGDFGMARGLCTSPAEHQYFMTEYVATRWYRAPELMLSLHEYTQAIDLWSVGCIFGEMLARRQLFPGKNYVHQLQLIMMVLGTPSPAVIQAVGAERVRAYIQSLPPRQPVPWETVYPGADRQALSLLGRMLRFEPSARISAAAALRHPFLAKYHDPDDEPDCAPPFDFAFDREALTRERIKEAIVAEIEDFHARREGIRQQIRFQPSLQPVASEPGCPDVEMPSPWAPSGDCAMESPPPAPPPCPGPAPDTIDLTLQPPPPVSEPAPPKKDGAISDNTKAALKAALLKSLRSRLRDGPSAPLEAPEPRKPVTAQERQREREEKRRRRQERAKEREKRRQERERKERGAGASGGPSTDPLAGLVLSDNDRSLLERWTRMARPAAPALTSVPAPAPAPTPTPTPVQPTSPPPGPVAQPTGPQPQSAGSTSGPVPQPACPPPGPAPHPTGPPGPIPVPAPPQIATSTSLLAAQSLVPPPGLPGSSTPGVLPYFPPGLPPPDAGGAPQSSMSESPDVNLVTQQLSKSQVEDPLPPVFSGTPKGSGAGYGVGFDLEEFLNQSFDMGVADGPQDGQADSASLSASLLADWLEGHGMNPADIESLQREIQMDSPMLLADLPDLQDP
Sequence of LRRK2 (human), Q5S007 [G2019S] (Q5S007 whole entry G2019S, looked up): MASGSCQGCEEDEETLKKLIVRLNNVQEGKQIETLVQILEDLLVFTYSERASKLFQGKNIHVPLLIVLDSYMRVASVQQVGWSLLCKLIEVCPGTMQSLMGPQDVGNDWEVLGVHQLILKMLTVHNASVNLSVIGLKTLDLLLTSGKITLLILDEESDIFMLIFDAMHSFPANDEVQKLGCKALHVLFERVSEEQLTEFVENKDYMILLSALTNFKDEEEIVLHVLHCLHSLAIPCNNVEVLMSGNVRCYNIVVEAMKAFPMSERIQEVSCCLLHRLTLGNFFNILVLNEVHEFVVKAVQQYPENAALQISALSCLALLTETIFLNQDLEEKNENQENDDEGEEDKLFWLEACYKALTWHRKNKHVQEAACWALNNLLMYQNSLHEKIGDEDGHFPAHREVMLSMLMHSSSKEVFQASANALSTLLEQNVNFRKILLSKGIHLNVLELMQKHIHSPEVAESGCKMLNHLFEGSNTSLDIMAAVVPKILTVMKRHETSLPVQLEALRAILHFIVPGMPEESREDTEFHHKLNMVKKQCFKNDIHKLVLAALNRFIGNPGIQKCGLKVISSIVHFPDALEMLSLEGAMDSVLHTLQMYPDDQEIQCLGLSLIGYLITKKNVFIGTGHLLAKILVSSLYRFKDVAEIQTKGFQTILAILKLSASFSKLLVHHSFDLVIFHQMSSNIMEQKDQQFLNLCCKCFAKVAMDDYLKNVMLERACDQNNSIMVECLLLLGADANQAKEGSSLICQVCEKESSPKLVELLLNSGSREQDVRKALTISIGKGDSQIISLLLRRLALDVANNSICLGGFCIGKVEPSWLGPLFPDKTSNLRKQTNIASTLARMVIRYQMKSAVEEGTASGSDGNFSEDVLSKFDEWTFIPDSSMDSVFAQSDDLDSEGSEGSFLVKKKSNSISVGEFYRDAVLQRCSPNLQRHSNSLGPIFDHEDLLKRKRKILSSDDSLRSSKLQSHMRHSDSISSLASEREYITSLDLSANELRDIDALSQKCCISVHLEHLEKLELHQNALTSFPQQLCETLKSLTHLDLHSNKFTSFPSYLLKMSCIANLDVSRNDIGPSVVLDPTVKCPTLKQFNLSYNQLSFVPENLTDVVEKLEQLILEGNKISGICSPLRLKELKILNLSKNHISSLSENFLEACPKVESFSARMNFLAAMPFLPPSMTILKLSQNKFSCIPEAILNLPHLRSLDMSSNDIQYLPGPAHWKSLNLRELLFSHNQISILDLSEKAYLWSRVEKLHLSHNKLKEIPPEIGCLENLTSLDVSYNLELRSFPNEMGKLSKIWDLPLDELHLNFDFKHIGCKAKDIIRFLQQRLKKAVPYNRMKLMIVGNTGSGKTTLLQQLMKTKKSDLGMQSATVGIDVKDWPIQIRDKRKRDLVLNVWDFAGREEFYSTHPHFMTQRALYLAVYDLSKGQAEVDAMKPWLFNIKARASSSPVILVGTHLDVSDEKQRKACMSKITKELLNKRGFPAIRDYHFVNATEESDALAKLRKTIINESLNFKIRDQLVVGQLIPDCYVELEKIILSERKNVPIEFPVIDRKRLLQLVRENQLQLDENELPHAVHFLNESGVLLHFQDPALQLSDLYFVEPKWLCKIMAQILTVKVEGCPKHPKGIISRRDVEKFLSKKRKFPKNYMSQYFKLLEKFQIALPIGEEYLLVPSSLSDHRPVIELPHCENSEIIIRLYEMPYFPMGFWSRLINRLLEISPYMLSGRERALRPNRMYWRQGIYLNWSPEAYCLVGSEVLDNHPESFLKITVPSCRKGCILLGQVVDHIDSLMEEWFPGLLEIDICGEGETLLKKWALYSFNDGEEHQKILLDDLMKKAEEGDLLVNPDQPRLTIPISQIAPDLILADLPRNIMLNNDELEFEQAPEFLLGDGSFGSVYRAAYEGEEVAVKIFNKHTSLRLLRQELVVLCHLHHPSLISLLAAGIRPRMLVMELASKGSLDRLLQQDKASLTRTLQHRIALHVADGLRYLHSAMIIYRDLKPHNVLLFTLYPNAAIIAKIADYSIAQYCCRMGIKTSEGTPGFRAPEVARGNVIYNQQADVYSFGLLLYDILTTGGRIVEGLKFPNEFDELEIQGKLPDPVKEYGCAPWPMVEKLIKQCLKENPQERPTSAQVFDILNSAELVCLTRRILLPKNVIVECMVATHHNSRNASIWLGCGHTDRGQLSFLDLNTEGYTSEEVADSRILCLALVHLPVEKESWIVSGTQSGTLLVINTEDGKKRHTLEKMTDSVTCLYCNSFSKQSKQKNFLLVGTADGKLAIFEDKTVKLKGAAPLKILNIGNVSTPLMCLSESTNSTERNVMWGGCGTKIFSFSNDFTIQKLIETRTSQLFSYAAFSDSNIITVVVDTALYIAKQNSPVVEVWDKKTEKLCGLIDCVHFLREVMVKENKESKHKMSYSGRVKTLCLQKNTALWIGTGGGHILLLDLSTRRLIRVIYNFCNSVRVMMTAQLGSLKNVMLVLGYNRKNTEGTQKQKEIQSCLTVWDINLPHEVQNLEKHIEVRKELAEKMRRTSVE

As for `CCOc1cc(N2CCC(O)CC2)ccc1Nc1ncc2c(n1)N(C)c1ccccc1C(=O)N2C`, the kinase still bound, per cent of control on MAPK7 (human) turned out to be 0%; at RPS6KA1 KD2 (human), 28%; on GAK (human) it was 31%; at TTK (human), 19%; in experiment [1], 30%; at TNK1 (human), 7.8%. Moreover, the kinase still bound, per cent of control at RPS6KA6 KD2 (human) was found to be 31%; at DCLK2 (human), 0.65%; on DCLK1 (human) (compound 10.0 µM), 0.9%; on ROS1 (human) it was 15%; on ALK (human) it was 29%; on PLK4 (human), 2.8%. On TNK2 (human), this compound registered a kinase still bound, per cent of control of 17%. The same compound showed a Kd at DCLK1 (human) of 97 nM. Besides, the IC50 was determined as 54.3 nM against TAOK2 (human), 2.6 nM in [2], 120 nM on MAP3K3 (human) and 155 nM against MAP3K2 (human).
